Experimental data reported in PubChem BioAssay AID1963849 (Molecular Pharmacology Branch, DTP, NCI, 2024).

System: 299254-011-R-J1-PDC complex spheroid viability
Assay: Anticancer human tumor 299254-011-R-J1-PDC patient-derived melanoma cell line growth inhibition [POLQ]
Settings: for IC50: curve of first compound; for viability, T/C: stronger effect = lower value
How it was run: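 Complex spheroid viability model combining PDC tumour cells with endothelial (HUVEC) and MSC stromal cells. Novobiocin, ART-558 or RP6685 were tested singly and in combination with standard and investigational anticancer drugs. Each was titrated in half-log steps from near clinical Cmax, or from 10 microM where Cmax was unknown.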

[1] = second compound 0.0316 µM, first compound 0.00316 µM
[2] = second compound 0.0316 µM, first compound 0.01 µM
[3] = second compound 0.0316 µM, first compound 0.0316 µM
[4] = second compound 0.0316 µM, first compound 0.1 µM
[5] = second compound 0.0316 µM, first compound 0.316 µM
[6] = second compound 0.0316 µM, first compound 1 µM
[7] = second compound 0.1 µM, first compound 0.00316 µM
[8] = second compound 0.1 µM, first compound 0.01 µM
[9] = second compound 0.1 µM, first compound 0.0316 µM
[10] = second compound 0.1 µM, first compound 0.1 µM
[11] = second compound 0.1 µM, first compound 0.316 µM
[12] = second compound 0.1 µM, first compound 1 µM
[13] = second compound 0.316 µM, first compound 0.00316 µM
[14] = second compound 0.316 µM, first compound 0.01 µM
[15] = second compound 0.316 µM, first compound 0.0316 µM
[16] = second compound 0.316 µM, first compound 0.1 µM
[17] = second compound 0.316 µM, first compound 0.316 µM
[18] = second compound 0.316 µM, first compound 1 µM
[19] = second compound 1 µM, first compound 0.00316 µM
[20] = second compound 1 µM, first compound 0.01 µM
[21] = second compound 1 µM, first compound 0.0316 µM
[22] = second compound 1 µM, first compound 0.1 µM
[23] = second compound 1 µM, first compound 0.316 µM
[24] = second compound 1 µM, first compound 1 µM
[25] = second compound 3.16 µM, first compound 0.00316 µM
[26] = second compound 3.16 µM, first compound 0.01 µM
[27] = second compound 3.16 µM, first compound 0.0316 µM
[28] = second compound 3.16 µM, first compound 0.1 µM
[29] = second compound 3.16 µM, first compound 0.316 µM
[30] = second compound 3.16 µM, first compound 1 µM
[31] = second compound 10 µM, first compound 0.00316 µM
[32] = second compound 10 µM, first compound 0.01 µM
[33] = second compound 10 µM, first compound 0.0316 µM
[34] = second compound 10 µM, first compound 0.1 µM
[35] = second compound 10 µM, first compound 0.316 µM
[36] = second compound 10 µM, first compound 1 µM
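Note: spheroids exposed to drugs for one week before measurement.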
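Throughout, for viability, T/C: percent viability relative to DMSO vehicle control taken as 100%.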

## C=CCn1c(=O)c2cnc(Nc3ccc(N4CCN(C)CC4)cc3)nc2n1-c1cccc(C(C)(C)O)n1 + Cc1cccc(N(C)C(=O)C2C(O)CCN2c2nc(C)cc(C(F)(F)F)c2C#N)c1
Second compound 0.0316 µM
  IC50: > 1 µM
Second compound 0.1 µM
  IC50: > 1 µM
Second compound 0.316 µM
  IC50: > 1 µM
Second compound 1 µM
  IC50: > 1 µM
Second compound 3.16 µM
  IC50: > 1 µM
Second compound 10 µM
  IC50: > 1 µM
[1]
  viability, T/C: 98.3%
[2]
  viability, T/C: 119%
[3]
  viability, T/C: 96%
[4]
  viability, T/C: 116%
[5]
  viability, T/C: 103%
[6]
  viability, T/C: 62.1%
[7]
  viability, T/C: 101%
[8]
  viability, T/C: 103%
[9]
  viability, T/C: 106%
[10]
  viability, T/C: 103%
[11]
  viability, T/C: 90.2%
[12]
  viability, T/C: 67.4%
[13]
  viability, T/C: 111%
[14]
  viability, T/C: 108%
[15]
  viability, T/C: 99.7%
[16]
  viability, T/C: 108%
[17]
  viability, T/C: 108%
[18]
  viability, T/C: 64.2%
[19]
  viability, T/C: 117%
[20]
  viability, T/C: 98.6%
[21]
  viability, T/C: 110%
[22]
  viability, T/C: 99.8%
[23]
  viability, T/C: 90.5%
[24]
  viability, T/C: 57.8%
[25]
  viability, T/C: 104%
[26]
  viability, T/C: 102%
[27]
  viability, T/C: 113%
[28]
  viability, T/C: 103%
[29]
  viability, T/C: 97.2%
[30]
  viability, T/C: 67%
[31]
  viability, T/C: 105%
[32]
  viability, T/C: 109%
[33]
  viability, T/C: 89.4%
[34]
  viability, T/C: 96.5%
[35]
  viability, T/C: 88.2%
[36]
  viability, T/C: 59.3%

## CCCS(=O)(=O)Nc1ccc(F)c(C(=O)c2c[nH]c3ncc(-c4ccc(Cl)cc4)cc23)c1F + Cc1cccc(N(C)C(=O)C2C(O)CCN2c2nc(C)cc(C(F)(F)F)c2C#N)c1
Second compound 0.0316 µM
  IC50: > 10 µM
Second compound 0.1 µM
  IC50: 8.99 µM
Second compound 0.316 µM
  IC50: 9.29 µM
Second compound 1 µM
  IC50: 9.29 µM
Second compound 3.16 µM
  IC50: > 10 µM
Second compound 10 µM
  IC50: > 10 µM
[3]
  viability, T/C: 117%
[4]
  viability, T/C: 95.7%
[5]
  viability, T/C: 119%
[6]
  viability, T/C: 109%
Second compound 0.0316 µM, first compound 3.16 µM
  viability, T/C: 123%
Second compound 0.0316 µM, first compound 10 µM
  viability, T/C: 50%
[9]
  viability, T/C: 104%
[10]
  viability, T/C: 107%
[11]
  viability, T/C: 109%
[12]
  viability, T/C: 114%
Second compound 0.1 µM, first compound 3.16 µM
  viability, T/C: 115%
Second compound 0.1 µM, first compound 10 µM
  viability, T/C: 44%
[15]
  viability, T/C: 107%
[16]
  viability, T/C: 112%
[17]
  viability, T/C: 104%
[18]
  viability, T/C: 110%
Second compound 0.316 µM, first compound 3.16 µM
  viability, T/C: 103%
Second compound 0.316 µM, first compound 10 µM
  viability, T/C: 46.3%
[21]
  viability, T/C: 93.1%
[22]
  viability, T/C: 103%
[23]
  viability, T/C: 103%
[24]
  viability, T/C: 107%
Second compound 1 µM, first compound 3.16 µM
  viability, T/C: 109%
Second compound 1 µM, first compound 10 µM
  viability, T/C: 46.4%
[27]
  viability, T/C: 110%
[28]
  viability, T/C: 124%
[29]
  viability, T/C: 108%
[30]
  viability, T/C: 108%
Second compound 3.16 µM, first compound 3.16 µM
  viability, T/C: 117%
Second compound 3.16 µM, first compound 10 µM
  viability, T/C: 52.6%
[33]
  viability, T/C: 100%
[34]
  viability, T/C: 110%
[35]
  viability, T/C: 113%
[36]
  viability, T/C: 107%
Second compound 10 µM, first compound 3.16 µM
  viability, T/C: 110%
Second compound 10 µM, first compound 10 µM
  viability, T/C: 52.4%

## CCc1c2c(nc3ccc(O)cc13)-c1cc3c(c(=O)n1C2)COC(=O)[C@]3(O)CC + Cc1cccc(N(C)C(=O)C2C(O)CCN2c2nc(C)cc(C(F)(F)F)c2C#N)c1
Second compound 0.0316 µM
  IC50: > 1 µM
Second compound 0.1 µM
  IC50: > 1 µM
Second compound 0.316 µM
  IC50: > 1 µM
Second compound 1 µM
  IC50: > 1 µM
Second compound 3.16 µM
  IC50: > 1 µM
Second compound 10 µM
  IC50: > 1 µM
[1]
  viability, T/C: 95.9%
[2]
  viability, T/C: 79.2%
[3]
  viability, T/C: 72.9%
[4]
  viability, T/C: 67.8%
[5]
  viability, T/C: 62.5%
[6]
  viability, T/C: 53.7%
[7]
  viability, T/C: 92.8%
[8]
  viability, T/C: 95.7%
[9]
  viability, T/C: 65.3%
[10]
  viability, T/C: 67.6%
[11]
  viability, T/C: 72.8%
[12]
  viability, T/C: 56.4%
[13]
  viability, T/C: 104%
[14]
  viability, T/C: 86.3%
[15]
  viability, T/C: 75.3%
[16]
  viability, T/C: 76.2%
[17]
  viability, T/C: 56.7%
[18]
  viability, T/C: 53%
[19]
  viability, T/C: 111%
[20]
  viability, T/C: 88.5%
[21]
  viability, T/C: 75.1%
[22]
  viability, T/C: 64.7%
[23]
  viability, T/C: 68.6%
[24]
  viability, T/C: 49.6%
[25]
  viability, T/C: 112%
[26]
  viability, T/C: 79%
[27]
  viability, T/C: 72.1%
[28]
  viability, T/C: 64.8%
[29]
  viability, T/C: 71.6%
[30]
  viability, T/C: 60%
[31]
  viability, T/C: 88.6%
[32]
  viability, T/C: 69.3%
[33]
  viability, T/C: 57.9%
[34]
  viability, T/C: 81.5%
[35]
  viability, T/C: 60.1%
[36]
  viability, T/C: 49.7%
